Patent US12459951B2, “Compounds that interact with RAS superfamily proteins for treatment of cancers, inflammatory diseases, rasopathies, and fibrotic disease” (SHY Therapeutics, LLC, priority 2022, dated 2025)

Experiments:
Akt phosphorylation = assay: Akt Phosphorylation Assay (western blot), Panc-1; format: cell-based, human; details: at 10 μM, * = activation
How it was run: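 Phospho-Akt (Ser473) was measured by western blot in lysates of KRas G12D Panc-1 cells exposed to test compound for 6 h at 37 °C, either at 10 μM final with 0.3% DMSO or as serial dilutions for IC50. One format used overnight 0.5% FBS starvation followed by a 15 min pulse of 1.5 ng/ml EGF. The other used cells in 10% FBS with no stimulation.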

IL6 = assay: IL-6 Quantification Assay (ELISA), LPS-stimulated RAW 264.7; format: cell-based; parameters: inhibition: dose or concentration left out as unconfirmed; details: Mus musculus, RAW264.7; read-out: IL-6: % inh.
TNF-alpha = TNF-alpha Quantification Assay (ELISA), LPS-stimulated RAW 264.7; format: cell-based; details: Mus musculus, RAW264.7; at 10 μM; read-out: TNFα: % inh.
KRas G12C mutant = assay: Ras GTP Binding Domain Inhibition Assay (Ras Superfamily Assay); details: 20 μM compound; for KRas G12C mutant + SOS: % inh.: with SOS; for KRas G12C mutant: % inh.: without SOS
How it was run: (§1)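 Binding of 100 nM fluorescent GTP (Cy3 or Cy5, 45 min, room temperature) was read after washes from plate-captured His-tagged protein. Beforehand, compounds at 20 μM or in dilution series for IC50 sat 3 h on the protein in Tris buffer pH 7.4 or 7.0 with 1% DMSO, Sos GEF optionally added for the last hour.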

KRas G12D mutant = assay: as above; details: 20 μM compound; for KRas G12D mutant + SOS: % inh.: with SOS; for KRas G12D mutant: % inh.: without SOS
How it was run: as §1

KRas Q61H mutant = assay: as above; details: 20 μM compound; for KRas Q61H mutant + SOS: % inh.: with SOS; for KRas Q61H mutant: % inh.: without SOS
How it was run: as §1

KRas wild type = assay: as above; details: 20 μM compound; for KRas wild type + SOS: % inh.: with SOS; for KRas wild type: % inh.: without SOS
How it was run: as §1

Rac-1 = target: T1, Rac-1 (Homo sapiens, UniProt P63000); assay: as above; details: read-out: Rac-1: % inh.
T1 construct: made in house
How it was run: as §1

Rho-A = target: T2, Rho-A (Homo sapiens, UniProt P61586); assay: as above; details: read-out: Rho-A: % inh..
T2 construct: made in house
How it was run: as §1

T2 sequence (P61586 whole entry): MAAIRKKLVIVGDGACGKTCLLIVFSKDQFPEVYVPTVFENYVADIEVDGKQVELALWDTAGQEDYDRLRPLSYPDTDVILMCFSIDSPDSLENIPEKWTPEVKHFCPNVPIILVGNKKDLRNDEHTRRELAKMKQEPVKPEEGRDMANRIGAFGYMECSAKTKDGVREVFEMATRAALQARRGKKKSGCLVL

Compound	% inh of Akt phosphorylation in Panc-1 (Akt phosphorylation)	inhibition (IL6) [%]	inhibition at 10 µM (TNF-alpha) [%]	KRas G12C mutant + SOS: % inh. (KRas G12C mutant)	KRas G12C mutant: % inh. (KRas G12C mutant)	KRas G12D mutant + SOS: % inh. (KRas G12D mutant)	KRas G12D mutant: % inh. (KRas G12D mutant)	KRas Q61H mutant + SOS: % inh. (KRas Q61H mutant)	KRas Q61H mutant: % inh. (KRas Q61H mutant)	KRas wild type + SOS: % inh. (KRas wild type)	KRas wild type: % inh. (KRas wild type)	inhibition at 20 µM (Rac-1) [%]	inhibition at 20 µM (Rho-A) [%]
COC1CCCN(c2nc(-c3nccn3C)nn3cc(-c4ccn(C(C)C)n4)c(C)c23)C1 (racemic) [Compound 4, rac 6-(1-Isopropyl-1H-pyrazol-3-yl)-5-methyl-2-(1-methyl-1H-imidazol-2-yl)-4-(3-(oxo-γ6-methyl)piperidin-1-yl)pyrrolo[2,1-f][1,2,4]triazine]	0 (0% inhibition)	75 to 100	75 to 100	0 (0 = 0% inhibition)	0 (0 = 0% inhibition)	0 (0 = 0% inhibition)	A (A = 1-25% inhibition)	0 (0 = 0% inhibition)	0 (0 = 0% inhibition)	A (A = 1-25% inhibition)	A (A = 1-25% inhibition)	1 to 25	1 to 25
COCC1CCN(c2nc(-c3nccn3C)nn3cc(-c4ccn(C(C)C)n4)c(-c4ccccc4)c23)C1.Cl (racemic) [Compound 19, rac 6-(1-Isopropyl-1H-pyrazol-3-yl)-4-(3-(methoxymethyl)pyrrolidin-1-yl)-2-(1-methyl-1H-imidazol-2-yl)-5-phenylpyrrolo[2,1-f][1,2,4]triazine hydrochloride salt]	D* (85-100% activation)	75 to 100	25 to 49	A (A = 1-25% inhibition)	0 (0 = 0% inhibition)	A (A = 1-25% inhibition)	B (B = 26-49% inhibition)	B (B = 26-49% inhibition)	0 (0 = 0% inhibition)	A (A = 1-25% inhibition)	A (A = 1-25% inhibition)	0	1 to 25
Cc1ccn2nc(-c3nccn3C)nc(N)c12.O=C(O)C(F)(F)F [Compound 37, 5-Methyl-2-(1-methyl-1H-imidazol-2-yl)pyrrolo[2,1-f][1,2,4]triazin-4-amine trifluoroacetic acid salt]	0 (0% inhibition)	0	0	C (C = 50-75% inhibition)	C (C = 50-75% inhibition)	B (B = 26-49% inhibition)	B (B = 26-49% inhibition)	0 (0 = 0% inhibition)	0 (0 = 0% inhibition)	B (B = 26-49% inhibition)	B (B = 26-49% inhibition)	0	0
Cn1ccnc1-c1nc(O)c2c(-c3ccccc3)ccn2n1 [Compound 39, 2-(1-Methyl-1H-imidazol-2-yl)-5-phenylpyrrolo[2,1-f][1,2,4]triazin-4-ol]	0 (0% inhibition)	0	0	A (A = 1-25% inhibition)	B (B = 26-49% inhibition)	A (A = 1-25% inhibition)	A (A = 1-25% inhibition)	0 (0 = 0% inhibition)	A (A = 1-25% inhibition)	A (A = 1-25% inhibition)	A (A = 1-25% inhibition)	0	0
CO[C@H]1CC[C@@H](Nc2nc(-c3nccn3C)nn3cc(-c4ccn(C(C)C)n4)c(C)c23)C1 (racemic) [Compound 1, rac 6-(1-Isopropyl-1H-pyrazol-3-yl)-N-((1R,3S)-3-methoxycyclopentyl)-5-methyl-2-(1-methyl-1H-imidazol-2-yl)pyrrolo[2,1-f][1,2,4]triazin-4-amine]	C* (46-84% activation)	75 to 100	1 to 24	0 (0 = 0% inhibition)	0 (0 = 0% inhibition)	0 (0 = 0% inhibition)	A (A = 1-25% inhibition)	0 (0 = 0% inhibition)	0 (0 = 0% inhibition)	A (A = 1-25% inhibition)	0 (0 = 0% inhibition)	1 to 25	0
Cc1c(-c2ccn(C(C)C)n2)cn2nc(-c3nccn3C)nc(Nc3cc4n(n3)CCO4)c12 [Compound 91, N-(6-(1-Isopropyl-1H-pyrazol-3-yl)-5-methyl-2-(1-methyl-1H-imidazol-2-yl)pyrrolo[2,1-f][1,2,4]triazin-4-yl)-2,3-dihydropyrazolo[5,1-b]oxazol-6-amine]	D* (85-100% activation)	1 to 24	1 to 24			D (D = 76-100% inhibition)	D (D = 76-100% inhibition)			C (C = 50-75% inhibition)	D (D = 76-100% inhibition)	76 to 100	
COCCNc1nc(-c2nccn2C)nn2cc(-c3ccn(C(C)C)n3)c(C)c12 [Compound 5, 6-(1-Isopropyl-1H-pyrazol-3-yl)-N-(2-methoxyethyl)-5-methyl-2-(1-methyl-1H-imidazol-2-yl)pyrrolo[2,1-f][1,2,4]triazin-4-amine]	0 (0% inhibition)	0	0									26 to 49	26 to 49
COc1ncncc1Nc1nc(-c2nccn2C)nn2cc(-c3ccn(C(C)C)n3)c(C)c12 [Compound 88, 6-(1-Isopropyl-1H-pyrazol-3-yl)-N-(4-methoxypyrimidin-5-yl)-5-methyl-2-(1-methyl-1H-imidazol-2-yl)pyrrolo[2,1-f][1,2,4]triazin-4-amine]	D* (85-100% activation)	1 to 24	1 to 24			A (A = 1-25% inhibition)	A (A = 1-25% inhibition)			0 (0 = 0% inhibition)	0 (0 = 0% inhibition)	1 to 25	
CCc1nc(Nc2nc(-c3nccn3C)nn3cc(-c4ccn(C(C)C)n4)c(C)c23)nn1C [Compound 76, N-(5-Ethyl-1-methyl-1H-1,2,4-triazol-3-yl)-6-(1-isopropyl-1H-pyrazol-3-yl)-5-methyl-2-(1-methyl-1H-imidazol-2-yl)pyrrolo[2,1-f][1,2,4]triazin-4-amine]	D* (85-100% activation)	25 to 49	25 to 49			0 (0 = 0% inhibition)	C (C = 50-75% inhibition)			0 (0 = 0% inhibition)	B (B = 26-49% inhibition)	50 to 75	
Cc1c(-c2ccn(C(C)C)n2)cn2nc(-c3nccn3C)nc(Nc3ncc(C4CC4)o3)c12 [Compound 90, 5-Cyclopropyl-N-(6-(1-isopropyl-1H-pyrazol-3-yl)-5-methyl-2-(1-methyl-1H-imidazol-2-yl)pyrrolo[2,1-f][1,2,4]triazin-4-yl)oxazol-2-amine]	A* (1-25% activation)	0	1 to 24			A (A = 1-25% inhibition)	0 (0 = 0% inhibition)			0 (0 = 0% inhibition)	B (B = 26-49% inhibition)	76 to 100	
COCc1csc(Nc2nc(-c3nccn3C)nn3cc(-c4ccn(C(C)C)n4)c(C)c23)n1 [Compound 79, N-(6-(1-Isopropyl-1H-pyrazol-3-yl)-5-methyl-2-(1-methyl-1H-imidazol-2-yl)pyrrolo[2,1-f][1,2,4]triazin-4-yl)-4-(methoxymethyl)thiazol-2-amine]	D* (85-100% activation)	1 to 24	25 to 49			C (C = 50-75% inhibition)	D (D = 76-100% inhibition)			B (B = 26-49% inhibition)	C (C = 50-75% inhibition)	76 to 100	
